Target: hHDAC6 (Homo sapiens (Human), UniProt Q9UBN7)
Assay: HDAC6 inhibition protocol
Details: read-out: IC50 (nM) of enzyme activity HDAC6; hHDAC6 1.20 nM, Acetylated Peptide A 2 μM, 1 hour at RT
Method: After enzymatic reactions, reaction was stopped by adding 5 μl of 10 μM solution of a known inhibitor. The fluorescent signal of substrate and product was measured by means of microfluidics mobility assay in a EZ Reader II equipment. The percentage of conversion of substrate into product was calculated by the equipment software based on the area of the peaks.
The percentage of conversion data were analyzed using the computer software, Graphpad Prism. In the absence of the compound, the conversion (Ct) in each data set was defined as 100% activity. In the absence of HDAC, the conversion (Cb) in each data set was defined as 0% activity. The percent activity in the presence of each compound was calculated according to the following equation: % inhibition=(Ct−C)/(Ct−Cb), where C=the percentage of conversion in the presence of the compound.
The values of % inhibition versus a series of compound concentrations were then plotted using non-linear regression analysis of Sigmoidal dose-response curve generated with the equation Y=B+(T−B)/1+10((Log EC50−X)×Hill Slope), where Y=percent inhibition, B=minimum percent inhibition, T=maximum percent inhibition, X=logarithm of compound and Hill Slope=slope factor or Hill coefficient. The IC50 value was determined by the concentration causing a half-maximal percent activity.
The buffer assay used in the inhibition hHDAC6 assay is: Hepes 50 mM, KCl 100 mM, Tween 20 0.001%, BSA 0.01%; pH=7.4.

Sequence of hHDAC6 (Q9UBN7 whole entry): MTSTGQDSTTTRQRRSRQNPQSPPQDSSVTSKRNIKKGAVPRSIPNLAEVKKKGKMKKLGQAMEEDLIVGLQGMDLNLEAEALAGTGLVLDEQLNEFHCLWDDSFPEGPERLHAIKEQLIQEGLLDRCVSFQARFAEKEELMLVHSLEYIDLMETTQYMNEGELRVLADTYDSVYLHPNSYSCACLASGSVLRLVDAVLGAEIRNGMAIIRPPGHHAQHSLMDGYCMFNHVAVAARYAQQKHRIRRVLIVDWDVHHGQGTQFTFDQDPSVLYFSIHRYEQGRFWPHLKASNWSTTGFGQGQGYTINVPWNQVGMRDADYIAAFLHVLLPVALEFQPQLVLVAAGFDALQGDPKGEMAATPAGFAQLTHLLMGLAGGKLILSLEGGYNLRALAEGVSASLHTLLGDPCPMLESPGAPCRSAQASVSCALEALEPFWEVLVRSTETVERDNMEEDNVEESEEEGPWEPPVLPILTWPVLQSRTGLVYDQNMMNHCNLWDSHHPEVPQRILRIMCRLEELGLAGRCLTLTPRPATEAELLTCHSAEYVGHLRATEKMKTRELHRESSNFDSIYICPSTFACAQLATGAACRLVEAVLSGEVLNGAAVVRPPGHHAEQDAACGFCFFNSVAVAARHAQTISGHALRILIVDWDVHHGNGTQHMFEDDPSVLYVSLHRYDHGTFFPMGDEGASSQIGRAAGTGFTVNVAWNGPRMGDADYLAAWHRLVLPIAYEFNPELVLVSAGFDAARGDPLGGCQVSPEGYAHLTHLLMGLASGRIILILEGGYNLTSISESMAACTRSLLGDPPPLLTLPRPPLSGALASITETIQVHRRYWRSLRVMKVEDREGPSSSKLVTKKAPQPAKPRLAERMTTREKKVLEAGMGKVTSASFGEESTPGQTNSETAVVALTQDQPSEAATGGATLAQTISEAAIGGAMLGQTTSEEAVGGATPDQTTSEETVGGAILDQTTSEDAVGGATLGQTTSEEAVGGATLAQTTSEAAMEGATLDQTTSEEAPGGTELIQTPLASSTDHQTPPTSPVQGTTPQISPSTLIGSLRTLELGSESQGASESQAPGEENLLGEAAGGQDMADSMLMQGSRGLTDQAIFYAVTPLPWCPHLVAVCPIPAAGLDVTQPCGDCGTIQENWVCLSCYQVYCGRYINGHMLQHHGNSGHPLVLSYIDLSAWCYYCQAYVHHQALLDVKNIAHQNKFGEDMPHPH

| Compound | IC50 [nM] |
| --- | --- |
| FC(F)c1nnc(-c2ccc(Cn3cc(-c4cccs4)nn3)cc2)o1 [Example 36, 2-(difluoromethyl)-5-(4-((4-(thiophen-2-yl)-1H-1,2,3-triazol-1-yl)methyl)phenyl)-1,3,4-oxadiazole] | 105 |
| Cc1cccc2nnn(Cc3ccc(-c4nnc(C(F)F)o4)cc3)c12 [Example 12] | 190 |
| FC(F)c1nnc(-c2ccc(Cn3nnc4cc(Br)ccc43)nc2)o1 [Example 64, 2-(6-((5-bromo-1H-benzo[d][1,2,3]triazol-1-yl)methyl)pyridin-3-yl)-5-(difluoromethyl)-1,3,4-oxadiazole] | 48.7 |
| CC1(C)C(=O)N(Cc2ccc(-c3nnc(C(F)F)o3)cc2)c2ccccc21 [Example 15, 1-(4-(5-(difluoromethyl)-1,3,4-oxadiazol-2-yl)benzyl)-3,3-dimethylindolin-2-one] | 214 |
| FC(F)c1nnc(-c2ccc(Cn3cc(-c4ccncc4)nn3)cc2)o1 [Example 33, 2-(difluoromethyl)-5-(4-((4-(pyridin-4-yl)-1H-1,2,3-triazol-1-yl)methyl)phenyl)-1,3,4-oxadiazole] | 188 |
| O=C1N(Cc2ccc(-c3nnc(C(F)F)o3)cc2)c2ccccc2C12CCOCC2 [Example 19] | 229 |
| FC(F)c1nnc(-c2ccc(Cn3nnc(-c4ccccc4)c3-c3ccccc3)cc2)o1 [Example 38, 2-(difluoromethyl)-5-(4-((4,5-diphenyl-1H-1,2,3-triazol-1-yl)methyl)phenyl)-1,3,4-oxadiazole] | 266 |
| FC(F)c1nnc(-c2ccc(Cn3cc(-c4ccc(Cl)cc4)nn3)cc2)o1 [Example 29, 2-(4-((4-(4-chlorophenyl)-1H-1,2,3-triazol-1-yl)methyl)phenyl)-5-(difluoromethyl)-1,3,4-oxadiazole] | 95.6 |
| COC(=O)c1cn(Cc2ccc(-c3nnc(C(F)F)o3)cc2)nn1 [Example 28, methyl 1-(4-(5-(difluoromethyl)-1,3,4-oxadiazol-2-yl)benzyl)-1H-1,2,3-triazole-4-carboxylate] | 2800 |
| FC(F)c1nnc(-c2ccc(Cn3cc(-c4ccc(C(F)(F)F)cc4)nn3)cc2)o1 [Example 30, 2-(difluoromethyl)-5-(4-((4-(4-(trifluoromethyl)phenyl)-1H-1,2,3-triazol-1-yl)methyl)phenyl)-1,3,4-oxadiazole] | 238 |
| FC(F)c1nnc(-c2ccc(Cn3nnnc3-c3ccccc3)cc2)o1 [Example 17, 2-(difluoromethyl)-5-(4-((5-phenyl-1H-tetrazol-1-yl)methyl)phenyl)-1,3,4-oxadiazole] | 920 |
| FC(F)c1nnc(-c2ccc(Cn3c(C(F)(F)F)nc4cc(Cl)c(Cl)cc43)nc2)o1 [Example 58, 2-(6-((5,6-dichloro-2-(trifluoromethyl)-1H-benzo[d]imidazol-1-yl)methyl)pyridin-3-yl)-5-(difluoromethyl)-1,3,4-oxadiazole] | 121 |
| FC(F)c1nnc(-c2ccc(Cn3cc(-c4ccccc4)nn3)nc2)o1 [Example 41, 2-(difluoromethyl)-5-(6-((4-phenyl-1H-1,2,3-triazol-1-yl)methyl)pyridin-3-yl)-1,3,4-oxadiazole] | 40.9 |
| Fc1ccccc1-c1nnn(Cc2ccc(-c3nnc(C(F)F)o3)cn2)c1Cl [Example 67, 2-(6-((5-chloro-4-(2-fluorophenyl)-1H-1,2,3-triazol-1-yl)methyl)pyridin-3-yl)-5-(difluoromethyl)-1,3,4-oxadiazole] | 67.4 |
| FC(F)c1nnc(-c2ccc(Cn3nnc4cccnc43)nc2)o1 [Example 23, 2-(6-((3H-[1,2,3]triazolo[4,5-b]pyridin-3-yl)methyl)pyridin-3-yl)-5-(difluoromethyl)-1,3,4-oxadiazole] | 190 |
| FC(F)c1nnc(-c2ccc(Cn3nnc4ccc(Br)cc43)nc2)o1 [Example 65, 2-(6-((6-bromo-1H-benzo[d][1,2,3]triazol-1-yl)methyl)pyridin-3-yl)-5-(difluoromethyl)-1,3,4-oxadiazole] | 40.4 |
| COc1cccc(-c2cn(Cc3ccc(-c4nnc(C(F)F)o4)cn3)nn2)c1 [Example 50] | 43.5 |
| FC(F)c1nnc(-c2ccc(Cn3cnc4ccc(Br)cc43)nc2)o1 [Example 62, 2-(6-((6-bromo-1H-benzo[d]imidazol-1-yl)methyl)pyridin-3-yl)-5-(difluoromethyl)-1,3,4-oxadiazole] | 61.8 |
| O=C(c1nc2cc(Cl)c(Cl)cc2n1Cc1ccc(-c2nnc(C(F)F)o2)cc1)C(F)F [Example 9, 1-(5,6-dichloro-1-(4-(5-(difluoromethyl)-1,3,4-oxadiazol-2-yl)benzyl)-1H-benzo[d]imidazol-2-yl)-2,2-difluoroethanone] | 236 |
| CC(c1ccc(-c2nnc(C(F)F)o2)cc1)n1cnc2ccccc21 (stereo not shown) [Example 20, 2-(4-(1-(1H-benzo[d]imidazol-1-yl)ethyl)phenyl)-5-(difluoromethyl)-1,3,4-oxadiazole] | 589 |

| Compound | IC50 [nM] |
| --- | --- |
| FC(F)c1nnc(-c2ccc(Cn3ccc4cnccc43)cc2)o1 [Example 3, 2-(4-((1H-pyrrolo[3,2-c]pyridin-1-yl)methyl)phenyl)-5-(difluoromethyl)-1,3,4-oxadiazole] | 4910 |
| FC(F)c1nnc(-c2ccc(Cn3cc(-c4ccccc4)nn3)cn2)o1 [Example 42, 2-(difluoromethyl)-5-(5-((4-phenyl-1H-1,2,3-triazol-1-yl)methyl)pyridin-2-yl)-1,3,4-oxadiazole] | 1990 |
| Cc1nnn(Cc2ccc(-c3nnc(C(F)F)o3)cc2)c1-c1ccccc1 [Example 40, 2-(difluoromethyl)-5-(4-((4-methyl-5-phenyl-1H-1,2,3-triazol-1-yl)methyl)phenyl)-1,3,4-oxadiazole] | 686 |
| CC(c1ccc(-c2nnc(C(F)F)o2)cc1)n1cc(-c2ccccc2)nn1 (stereo not shown) [Example 37, 2-(difluoromethyl)-5-(4-(1-(4-phenyl-1H-1,2,3-triazol-1-yl)ethyl)phenyl)-1,3,4-oxadiazole] | 149 |
| FC(F)c1nnc(-c2ccc(Cn3cc(-c4cccc(Cl)c4)nn3)nc2)o1 [Example 45, 2-(6-((4-(3-chlorophenyl)-1H-1,2,3-triazol-1-yl)methyl)pyridin-3-yl)-5-(difluoromethyl)-1,3,4-oxadiazole] | 33.5 |
| FC(F)c1nnc(-c2ccc(Cn3cc(-c4cccnc4)nn3)cc2)o1 [Example 34, 2-(difluoromethyl)-5-(4-((4-(pyridin-3-yl)-1H-1,2,3-triazol-1-yl)methyl)phenyl)-1,3,4-oxadiazole] | 202 |
| Cc1nc2cc(Cl)c(Cl)cc2n1Cc1ccc(-c2nnc(C(F)F)o2)cn1 [Example 60, 2-(6-((5,6-dichloro-2-methyl-1H-benzo[d]imidazol-1-yl)methyl)pyridin-3-yl)-5-(difluoromethyl)-1,3,4-oxadiazole] | 42.3 |
| FC(F)c1nnc(-c2ccc(Cn3cc(-c4cc(Cl)cc(Cl)c4)nn3)nc2)o1 [Example 47, 2-(6-((4-(3,5-dichlorophenyl)-1H-1,2,3-triazol-1-yl)methyl)pyridin-3-yl)-5-(difluoromethyl)-1,3,4-oxadiazole] | 25.7 |
| Cc1c(-c2ccccc2)nnn1Cc1ccc(-c2nnc(C(F)F)o2)cc1 [Example 39, 2-(difluoromethyl)-5-(4-((5-methyl-4-phenyl-1H-1,2,3-triazol-1-yl)methyl)phenyl)-1,3,4-oxadiazole] | 366 |
| Fc1cccc(F)c1-c1cn(Cc2ccc(-c3nnc(C(F)F)o3)cn2)nn1 [Example 49, 2-(difluoromethyl)-5-(6-((4-(2,6-difluorophenyl)-1H-1,2,3-triazol-1-yl)methyl)pyridin-3-yl)-1,3,4-oxadiazole] | 66.7 |
| O=c1n(-c2ccccc2)cnn1Cc1ccc(-c2nnc(C(F)F)o2)cc1 [Example 18, 1-(4-(5-(difluoromethyl)-1,3,4-oxadiazol-2-yl)benzyl)-4-phenyl-1H-1,2,4-triazol-5(4H)-one] | 1160 |
| O=C1c2ccccc2C(=O)N1Cc1ccc(-c2nnc(C(F)F)o2)cc1 [Example 16, 2-(4-(5-(difluoromethyl)-1,3,4-oxadiazol-2-yl)benzyl)isoindoline-1,3-dione] | 258 |
| O=C(c1cn(Cc2ccc(-c3nnc(C(F)F)o3)cc2)c2ccccc12)C(F)F [Example 5, 1-(1-(4-(5-(difluoromethyl)-1,3,4-oxadiazol-2-yl)benzyl)-1H-indol-3-yl)-2,2-difluoroethanone] | 239 |
| FC(F)c1nnc(-c2ccc(Cn3ncc4ccccc43)cc2)o1 [Example 6, 2-(4-((1H-indazol-1-yl)methyl)phenyl)-5-(difluoromethyl)-1,3,4-oxadiazole] | 417 |
| CC(C)(C)c1cn(Cc2ccc(-c3nnc(C(F)F)o3)cc2)nn1 [Example 31, 2-(4-((4-(tert-butyl)-1H-1,2,3-triazol-1-yl)methyl)phenyl)-5-(difluoromethyl)-1,3,4-oxadiazole] | 273 |
| FC(F)c1nnc(-c2ccc(Cn3cnc(-c4ccccc4)c3)nc2)o1 [Example 26, 2-(difluoromethyl)-5-(6-((4-phenyl-1H-imidazol-1-yl)methyl)pyridin-3-yl)-1,3,4-oxadiazole] | 48.3 |
| FC(F)c1nnc(-c2ccc(Cn3nnc(-c4ccccc4)c3Cl)cc2)o1 [Example 51, 2-(4-((5-chloro-4-phenyl-1H-1,2,3-triazol-1-yl)methyl)phenyl)-5-(difluoromethyl)-1,3,4-oxadiazole] | 87.9 |
| FC(F)c1nnc(-c2ccc(Cn3cnc4cc(Br)ccc43)nc2)o1 [Example 63, 2-(6-((5-bromo-1H-benzo[d]imidazol-1-yl)methyl)pyridin-3-yl)-5-(difluoromethyl)-1,3,4-oxadiazole] | 48.3 |
| FC(F)c1nnc(-c2ccc(Cn3ccc4ncccc43)cc2)o1 [Example 2, 2-(4-((1H-pyrrolo[3,2-b]pyridin-1-yl)methyl)phenyl)-5-(difluoromethyl)-1,3,4-oxadiazole] | 1040 |
| FC(F)c1nnc(-c2ccc(Cn3nnc4ccccc43)nc2)o1 [Example 21, 2-(6-((1H-benzo[d][1,2,3]triazol-1-yl)methyl)pyridin-3-yl)-5-(difluoromethyl)-1,3,4-oxadiazole] | 103 |

From US12202823B2 (QUIMATRYX, S.L., priority 2019, dated 2025)
